Test: Human HepG2 cell viability assay in 384 well format
Format: toxicity, cell-based
Design: dose 125 nL, time 70.5 hour; concentration not given beside the values
Details: HepG2 cells, read-out: Inhibition

| Compound | cytotoxicity at 70.5 h |
| --- | --- |
| Cc1nc(CO[C@H]2CN(C(=O)c3cnoc3C)[C@@H]3COC[C@H]23)cs1 | -3.09% |
| Cc1ccc(N2CCO[C@H]3CN(Cc4ccncc4)C[C@H]32)nn1 | -8.56% |
| c1cnc(N2CCCC3(CCN(CC4CCC4)C3)C2)nc1 (configuration not stated) | -8.21% |
| Cc1nnc(CN2CCC(c3nc4cc(Cl)ccc4o3)CC2)n1C | -18.9% |
| N#Cc1cccc(OCc2ccoc2C(=O)N2CCCCCC2)c1 | -2.71% |
| O=C(NC1CC1)[C@H]1C[C@H]2OCC[C@H]2N(Cc2ccc(F)cc2)C1 | -6.46% |
| CCNc1ccnc(NCC2CNCCO2)n1 (configuration not stated) | -3.23% |
| CCCc1cc(N2CCCC2Cn2cc(C)cn2)n2ncnc2n1 (configuration not stated) | -8.77% |
| CN(C(=O)c1cccc2[nH]ncc12)C1CCN(c2ccccn2)CC1 | 31.6% |
| CCc1nc(CN(C)C2CCN(CCn3cc(C#N)cn3)C2)no1 (configuration not stated) | 37.1% |
| Cc1ccc(C(=O)N2CCc3c(COCC4CC4)cncc3C2)o1 | 18.4% |
| CC(O)C1CCN(C(=O)CCOc2ccccc2F)CC1 (configuration not stated) | -14.1% |
| O=C(c1cncc(NCC2COc3ccccc3C2)n1)N1CCCC1 (configuration not stated) | 14.9% |
| CC1CN(CC(=O)NCc2cccs2)CCN1c1nccs1 (configuration not stated) | -10.4% |
| CCOc1ccccc1C(=O)Oc1cc(=O)n2cccc(C)c2n1 | -21.9% |
| CCC1CN(CC(=O)NCCN2CCCC2)c2ccccc2S1 (configuration not stated) | -2.98% |
| CN1CCN(C(=O)CCn2nnc3ccccc32)CC(C(N)=O)C1 (configuration not stated) | -1.08% |
| CNC(=O)CN1CCOCC2(C1)CN(C(=O)CC(C)C)CCO2 (configuration not stated) | -4.88% |
| c1cc(-c2noc([C@@H]3Cc4nc[nH]c4CN3)n2)ccn1 | 1.06% |

| Compound | cytotoxicity at 70.5 h |
| --- | --- |
| CN(CC(F)(F)F)C(=O)Cn1cc(NC(=O)C(C)(C)C)cn1 | 3.96% |
| O=C(c1ccc(Sc2ccccn2)cc1)N1CCCSCC1 | -10.8% |
| Cc1nccc([C@@H]2C[C@H]3CN(S(=O)(=O)c4ccccc4)C[C@H]3O2)n1 | -2.27% |
| COCC(=O)N1CC(c2n[nH]cc2C)C1 | -6.26% |
| CCN(Cc1cnc(-c2ccccn2)nc1)C1CCS(=O)(=O)C1 (configuration not stated) | 5% |
| CC(C)n1cnc2c(-c3cccnc3)nc(C3CCNCC3)cc21 | 12% |
| Cc1cc(NC(C)Cc2cccs2)n2nccc2n1 (configuration not stated) | -14.7% |
| CN(C)C(C(=O)N1CC(c2ccccn2)C1)c1cccc(F)c1 (configuration not stated) | -2.09% |
| CCN1CCC(CC(=O)NCc2nc(C)cc(C)n2)CC1 | -3.98% |
| CCCn1[nH]cc/c1=N\C(=O)CN1CCOC(Cn2cc(C)cn2)C1 (configuration not stated) | -14.6% |
| CNC(=O)[C@@H](C)NC(=O)c1cc(-c2ccc(F)cc2)c(C)s1 | -3.7% |
| CCC(CO)N(Cc1ccccn1)C(=O)c1cccc(C#N)c1 (configuration not stated) | -1.64% |
| O=C(CN1CCCC1Cn1cncn1)Nc1nncs1 (configuration not stated) | 14.3% |
| Cc1cc(C)nc(C2CCN(C(=O)c3cnc(N(C)C)nc3)C2)n1 (configuration not stated) | -4.6% |
| O=C(c1cc(C2CC2)on1)N1CC[C@]2(C[C@H](Oc3cccnc3)CO2)C1 | -16.2% |
| N#Cc1ccccc1N1CCC(Nc2nccnc2C#N)CC1 | 0.142% |
| COCC(=O)N[C@H](C)c1onc(-c2ccc(OC)cc2)c1C(=O)O | 10.8% |
| COc1cccc(OCCNC(=O)CN2CCN(C)CC2C)c1 (configuration not stated) | -13.4% |
| CC(C)c1ncc2c(n1)CN(Cc1nc(-c3ccco3)no1)CC2 | -8.2% |

| Compound | cytotoxicity at 70.5 h |
| --- | --- |
| CC(C)Cc1nc(CN2CCN(CC(O)c3ccccc3)CC2)no1 (configuration not stated) | -3.23% |
| CN(C)c1cncc(C2CCCN(c3cnccn3)C2)n1 (configuration not stated) | -6.42% |
| COc1cc(C(=O)N(C)C)ccc1NC(=O)c1ccsc1 | 1.32% |
| CC/C=C(/C)C(=O)N1CSCC1C(=O)NC1=NCCS1 (configuration not stated) | -7.18% |
| Cc1cc(CN2CCN(C(=O)C3(C#N)CCCCC3)CC2)on1 | -4.13% |
| Cc1ccc(C(=O)NCC(O)c2cccc(F)c2)c(=O)[nH]1 (configuration not stated) | -0.0981% |
| Cc1nnc(CN(C)C2CCN(CCc3ccccn3)CC2)o1 | -4.31% |
| CN(Cc1nccs1)c1nc(-c2ccccn2)nc2c1CCNCC2 | -4.75% |
| O=c1[nH][nH]cc1-c1ccnc(NCCc2cccc(O)c2)n1 | -7.19% |
| O=C(Nc1cccnc1)[C@H]1C[C@H]2OCC[C@H]2N(Cc2ccc(F)cc2)C1 | -10% |
| COc1ccccc1CC1CCCN1C(=O)c1cn[nH]c1C (configuration not stated) | -4.05% |
| CCn1c(C2CCCNC2)nn(Cc2ccc(C(=O)NC)o2)c1=O (configuration not stated) | -3.04% |
| Cc1noc(CNC(=O)CN(C)c2nc3c(F)cccc3s2)n1 | 28.5% |
| COCCn1ccc(NC(=O)Nc2ccncc2)n1 | -3.96% |
| CC(NCc1cccs1)c1ccc(OCc2nccn2C)cc1 (configuration not stated) | -4.31% |
| CCNC(=O)CNC(=O)c1nc(C2CC2)n(-c2ccccc2Cl)n1 | -2.36% |
| Cc1cc(SC(C)(C)C)ccc1NC(=O)CNC(N)=O | -9.26% |
| CN(C)CCn1ccc2cc(NC(=O)NCc3ncnn3C)ccc21 | -3.79% |
| Cc1noc(C2CCC3(CCN(C(=O)C4=CCCCC4)CC3)O2)n1 (configuration not stated) | -6.87% |
